Assay results as given in paper PMC2939254 (Neuroscience, 2010).
Where two headings read alike, the source gives them in different places.

Columns and labels:
[1] = test system: NR1b/NR2A NMDAR expressed in HEK293 cells; type: cell-based, rat; settings: pH 7.35
[2] = test system: NR1a/NR2A NMDAR expressed in HEK293 cells; type: cell-based, rat; settings: pH 7.35
[3] = test system: NR1a/NR2B NMDAR expressed in HEK293 cells; type: cell-based, rat; settings: pH 7.35
[4] = test system: NR1b/NR2B NMDAR expressed in HEK293 cells; type: cell-based, rat; settings: pH 7.35
[5] = test system: NR2A-containing NMDAR complexes; type: cell-based, rat
NR2B-containing NMDAR = type: cell-based, rat
[6] = test system: NR1a/NR2B NMDAR expressed in HEK293 cells; settings: cited from earlier work
[7] = test system: NR1b/NR2A NMDAR expressed in HEK293 cells; settings: cited from earlier work
[8] = test system: NR1a/NR2A NMDAR expressed in HEK293 cells; settings: cited from earlier work
[9] = test system: NR1b/NR2B NMDAR expressed in HEK293 cells; settings: cited from earlier work

Substance | % maximal inhibition, 1b/2A [1] [%] | % maximal inhibition, 1a/2A [2] [%] | % maximal inhibition, 1a/2B [3] [%] | % maximal inhibition, 1b/2B [4] [%] | inhibition of NR2A-containing NMDAR complexes [5] | maximal inhibition of NR2B-containing NMDAR (NR2B-containing NMDAR) [%] | % maximal inhibition, 1a/2B [6] [%] | % maximal inhibition, 1b/2A [7] [%] | % maximal inhibition, 1a/2A [8] [%] | % maximal inhibition, 1b/2B [9] [%]
GEγγVAKNAAγLARγNI(NH2) [con-R′ [M8N]] | 60 ± 7 | 45 ± 6 | 53 ± 5 | 66 ± 5 |  |  |  |  |  | 
GEγγLQγNQγNLRγAEVKKNA(NH2) [con-G/T] | 0 | 0 | 80 ± 5 | 86 ± 4 | no inhibition | > 80 |  |  |  | 
GEγγYQAMLγNLRγAEVKKNA(NH2) [con-T[K7A]] | 91 ± 3 | 93 ± 2 | 85 ± 5 | 94 ± 2 |  |  |  |  |  | 
GEγγYQKALγNLRγAEVKKNA(NH2) [con-T[M8A]] |  |  |  |  |  |  | 73 ± 8 | 0 | 0 | 81 ± 5
GEγγVAAMAAγLARγNI(NH2) [con-R′ [K7A]] | 93 ± 4 | 93 ± 3 | 91 ± 3 | 95 ± 2 |  |  |  |  |  | 
GEγγYQKMAγNLRγAEVKKNA(NH2) [con-T[L9A]] | 91 ± 3 | 93 ± 2 | 92 ± 5 | 95 ± 2 |  |  |  |  |  | 
GEγγLQANQγLIRγKSN(NH2) [con-G[γ7A]] | 0 | 0 | 90 ± 4 | 95 ± 3 |  |  |  |  |  | 
GEγγVQKMQAγLARγNI(NH2) [con-R′ [A6Q/A9Q]] | 25 ± 5 | 0 | 70 ± 6 | 79 ± 5 |  |  |  |  |  | 
GEγγVAKMA AγLARγNI(NH2) [con-R′ [ΔA10]] | 0 | 0 | 55 ± 6 | 65 ± 5 |  |  |  |  |  | 
GEγγVAKAAAγLARγNI(NH2) [con-R′ [M8A]] | 0 | 0 | 85 ± 3 | 88 ± 4 |  |  |  |  |  | 
GEγγYQKALAγNLRγAEVKKNA(NH2) [con-T[M8A/+A10]] | 0 | 0 | 63 ± 4 | 67 ± 5 |  |  |  |  |  | 
GEγγLAKNA AγLARγNI(NH2) [con-R′ [V5L/ΔA10]] | 0 | 0 | 69 ± 4 | 71 ± 3 |  |  |  |  |  | 
GEγγVQKMAAγLARγNI(NH2) [con-R′ [A6Q]] | 72 ± 6 | 50 ± 7 | 84 ± 5 | 90 ± 4 |  |  |  |  |  | 
GEγγLQKNQγLIRγKSN(NH2) [con-G[γ7K]] | 0 | 0 | 82 ± 5 | 94 ±2 |  |  |  |  |  | 
GEγγYQγMLγNLRγAEVKKNA(NH2) [con-T[K7γ]] | 82 ± 6 | 78 ± 4 | 86 ± 5 | 90 ± 2 |  |  |  |  |  | 
GEγγYQKGLγNLRγAEVKKNA(NH2) [con-T[M8G]] | 0 | 0 | 80 ± 5 | 84 ± 4 |  |  |  |  |  | 
GEγγYAKNA AγLARγNI(NH2) [con-R′ [V5Y/ΔA10]] | 84 ± 4 | 82 ± 6 | 87 ± 5 | 90 ± 3 |  |  |  |  |  | 
GEγγLQKMLγNLRγAEVKKNA(NH2) [con-T[Y5L]] | 86 ± 7 | 80 ± 6 | 85 ± 3 | 90 ± 6 |  |  |  |  |  | 
GEγγYQKNLγNLRγAEVKKNA(NH2) [con-T[M8N]] |  |  |  |  |  |  | 82 ± 5 | 56 ± 7 | 48 ± 6 | 90 ± 4
